Like-named read-outs stand apart in the source and are kept apart here.
How the values were obtained:
CVB3 [1] = experiment: Inhibition of CVB3-induced cytopathic effects in Hep-2 cells (MTT); format: cell-based, Coxsackievirus B3; details: for EC50 / inhibition at 160 µM: Enterovirus B; for EC50: 100 TCID50 CVB3, 48 h, MTT, read-out: EC50 (50% protection from virus-induced cytopathogenicity), CVB3; for protection against CVB3-induced CPEs (microscopy): 120 μM W-9, 160 μM W-13, 160 μM W-15; for inhibition at 160 µM: CVB3, at 160 μM, read-out: inhibition of CVB3 infections
Description: (§1) Figure 1 Antiviral activities of novel 2-benzoxyl-phenylpyridine derivatives against CVB3 and ADV7. […] Hep-2 or HeLa cells were infected with 100 TCID50 of CVB3 or ADV7 for 1.5 h at 37 °C. Then, the inocula were aspirated and the cells were incubated with various concentrations of test compounds for 48 h. Cell viability was determined using the MTT assay. (b) Images showing the morphology of Hep-2 and HeLa cells treated with 120 μM W-9, 160 μM W-13, or 160 μM W-15 (magnification, 20×).
(§2) The antiviral activities of compounds against CVB3 and ADV7 were determined by measuring their inhibition of virus-induced CPEs in acutely infected Hep-2 and HeLa cells, respectively. Confluent cell monolayers in 96-well plates were infected with 100 TCID50 of CVB3 or ADV7 for 1.5 h at 37 °C, inocula were aspirated, and the cells then were incubated with various concentrations of compounds at 37 °C, 5% CO2, for 48 h. CPEs were observed by microscopy and the viability of cells was determined using MTT assays. The concentrations of test compounds required to achieve 50% protection from virus-induced cytopathogenicity (EC50 values) were determined. Adverse effects of tested compounds on host cells were also assessed using the MTT method after exposing uninfected cells to various concentrations of test compounds for 48 h at 37 °C. The CC50 values of compounds were calculated using SPSS software and selectivity indices were the ratio of CC50:EC50. Each experiment was performed in triplicate and at least three times, independently.

ADV7 = experiment: Inhibition of ADV7-induced cytopathic effects in HeLa cells (MTT); format: cell-based, adenovirus type 7; details: for EC50 / inhibition at 160 µM: Human mastadenovirus B; for EC50: 100 TCID50 ADV7, 48 h, MTT, read-out: EC50 (50% protection from virus-induced cytopathogenicity), ADV7; for protection against ADV7-induced CPEs (microscopy): 120 μM W-9, 160 μM W-13, 160 μM W-15; for inhibition at 160 µM: read-out: inhibition of ADV7 infections
Description: as §1, §2

CVB3 [2] = experiment: CVB3 progeny virus yield in Hep-2 cells (TCID50 titration); format: cell-based, Coxsackievirus B3; details: 36 h, 120 μM W-9, 160 μM W-13, 160 μM W-15, 160 μM ribavirin
Description: Based on their antiviral activities and therapeutic selectivity indices, the effects on virus progeny yields of compounds W9, W13, and W15 were further investigated, using ribavirin as a positive control drug. To this end, confluent monolayers of Hep-2 or HeLa cells in 96-well plates were infected with 100 × median tissue culture infective dose (TCID50) of CVB3 or ADV7, then treated with 120 μM W-9, 160 μM W-13, 160 μM W-15, or 160 μM ribavirin. After 36 h, culture media and cell lysates were collected, following freeze-thaw cycles, and then subjected to virus titration.
Figure 2 The effects of W9, W13, and W15 on progeny virus production. Hep-2 cells infected with 100 TCID50 of CVB3 (a), or HeLa cells infected with 100 TCID50 of ADV7(b), were incubated in the absence (virus control) or presence of 120 μM W-9, 160 μM W-13, 160 μM W-15, or 160 μM ribavirin for 36 h, and the culture media and cell lysates then harvested for virus titration. Viral titers are presented as Log10 TCID50/mL. * p < 0.05; ** p < 0.01, compared with the virus control group.
CVB3 or ADV7 suspensions, serially diluted 10-fold with DMEM containing 2% FBS (DMEM maintenance medium, MM), were inoculated to Hep-2 or HeLa cells in 96-well plates. After 1.5 h incubation at 37 °C in 5% CO2, unbound virus was washed out and the MM was added to the cells. After 2 days, infected cells were monitored for CPEs and virus titers were calculated using the Reed–Muench method.

CVB3 [3] = experiment: Viral release analysis; format: cell-based, Coxsackievirus B3; details: Hep-2 cells, 12 h; intra- and extracellular titers; 120 μM W-9, 160 μM W-13, W-15, ribavirin
Description: (§3) Figure 3 Analysis of the modes of action of W9, W13, and W15 against CVB3. (a) Analysis of effective stage. The antiviral effects of test compounds against CVB3 were detected by measuring cell viability after 48 h of infection when cells were treated with W9, W13, or W15 before, simultaneously, or after inoculation with CVB3 (100 TCID50). (b) Analysis of the effects on CVB3 adsorption. Mock-, 120 μM W-9-, 160 μM W-13-, 160 μM W-15-, or 160 μM ribavirin-treated CVB3 (10^6 TCID50) was inoculated onto Hep-2 cells and adsorbed for 2 h. Infected cells were then harvested and subjected to virus titration, using the TCID50 method. (c) The effects of test compounds on CVB3 release from Hep-2 cells. Hep-2 cells infected with 100 TCID50 of CVB3 were incubated with test compounds for 12 h, then cells and culture supernatants (intra- and extracellular) analyzed for virus yield, separately or together. Mock, no infection; VC, virus control. Values represent the means ± SDs of three independent experiments. * p < 0.05; ** p < 0.01, compared with the virus control group.
The viral life cycle is completed by release of progeny for further infection of neighboring cells. Therefore, we tested whether viral release from cells is affected by W9, W13, and W15. Hep-2 cells infected with 100 TCID50 of CVB3 were incubated with test compounds for 12 h, then both cells and supernatants (intra- and extracellular), or one of which was harvested separately, and virus yields were determined. Ribavirin was used as the positive control.
Hep-2 cells were treated with or without 120 μM W-9, 160 μM W-13, 160 μM W-15, or 160 μM ribavirin after infection with 100 TCID50 of CVB3. Supernatants and cells were harvested together or separately for the determination of progeny virus yields at 12 h pi by the Reed–Muench method.

CVB3 [4] = experiment: Analysis of effective stage (prevention, mixture, treatment modes); format: cell-based, Coxsackievirus B3; details: Hep-2 cells, cell viability after 48 h; for inhibition of CVB3, compound added just before or during infection: prevention and mixture modes; for inhibitory effect against CVB3, compound added post infection: treatment mode
Description: The mechanisms by which W9, W13, and W15 inhibit CVB3 infection were further investigated by three different approaches, using ribavirin as a positive control. Antiviral effects against CVB3 were detected by measuring cell viability after 48 h of infection when cells were treated with compounds W9, W13, and W15 before, simultaneously, or after inoculation with CVB3 (100 TCID50).
as §3
To identify the step in the life cycle of CVB3 that was affected by the compounds, various concentrations of W9, W13, and W15 were added to Hep-2 cells, and the following three treatment procedures conducted: (i) To evaluate preventive effects (prevention mode of action), various concentrations of compounds were added to cells for 2 h at 37 °C, followed by washing with MM before virus infection; (ii) To analyze for inhibition of adsorption (mixture mode of action), a mixture of compound and virus was added to cells for 2 h at 37 °C, followed by washing with MM; (iii) To assess therapeutic effects (treatment mode of action), cells were first infected for 2 h at 37 °C, followed by washing with MM, addition of the compounds, and incubation for the duration of the experiment. For all procedures, cell viability was estimated after 48 h of infection, using MTT assays.

## NC(=O)c1ncn([C@@H]2O[C@H](CO)[C@@H](O)[C@H]2O)n1 [Ribavirin, reference compound]
CVB3 [1]
  SI (CC50/EC50), CVB3: 8.3
  maximum inhibition of CVB3: 63.0%
  EC50: 101 µM
ADV7
  SI (CC50/EC50), ADV7: 7.1
  maximum inhibition of ADV7: 72.4%
  EC50: 114 µM
CVB3 [2]
  reduction in CVB3 virus progeny titer relative to untreated control: approximately 2.0 log
CVB3 [3]
  effect on CVB3 release from cells: do not act on viral release from cells

## O=C(Oc1cc(Cl)ccc1-c1ccccn1)c1ccccc1 [W9]
CVB3 [1]
  SI (CC50/EC50), CVB3: 6.0
  inhibitory activity against CVB3 infection (in words): significant inhibitory activities
  protection against CVB3-induced CPEs (microscopy): almost complete protection
  EC50: 24.6 ± 8.7 µM
  inhibition at 160 µM: 73%
ADV7
  SI (CC50/EC50), ADV7: 9.8
  inhibitory activity against ADV7 infection (in words): significant inhibitory activities
  protection against ADV7-induced CPEs (microscopy): almost complete protection
  EC50: 27.1 ± 9 µM
  inhibition at 160 µM: 81.4%
CVB3 [2]
  reduction in CVB3 virus progeny titer relative to untreated control: approximately 2.5 log
CVB3 [4]
  inhibition of CVB3, compound added just before or during infection: no significant inhibition
  inhibitory effect against CVB3, compound added post infection: most powerful inhibitory effects
CVB3 [3]
  effect on CVB3 release from cells: do not act on viral release from cells

## Cc1ccc(OC(=O)C(C)(C)C)c(-c2ccccn2)c1 [W13]
CVB3 [1]
  SI (CC50/EC50), CVB3: 10.2
  inhibitory activity against CVB3 infection (in words): significant inhibitory activities
  protection against CVB3-induced CPEs (microscopy): almost complete protection
  EC50: 41.6 ± 11.5 µM
  inhibition at 160 µM: 92.8%
ADV7
  SI (CC50/EC50), ADV7: >10
  inhibitory activity against ADV7 infection (in words): significant inhibitory activities
  protection against ADV7-induced CPEs (microscopy): almost complete protection
  EC50: 36.4 ± 16.4 µM
  inhibition at 160 µM: 83.9%
ADV7; listed as W-13
  SI (CC50/EC50), ADV7: > 10
CVB3 [2]
  reduction in CVB3 virus progeny titer relative to untreated control: approximately 2.5 log
CVB3 [4]
  inhibition of CVB3, compound added just before or during infection: no significant inhibition
  inhibitory effect against CVB3, compound added post infection: most powerful inhibitory effects
CVB3 [3]
  effect on CVB3 release from cells: do not act on viral release from cells

## CC(=O)Oc1ccc(-c2ccccn2)c(OC(=O)c2ccccc2)c1 [W15]
CVB3 [1]
  SI (CC50/EC50), CVB3: 6.5
  inhibitory activity against CVB3 infection (in words): significant inhibitory activities
  protection against CVB3-induced CPEs (microscopy): almost complete protection
  EC50: 69.7 ± 15 µM
  inhibition at 160 µM: 90%
ADV7
  SI (CC50/EC50), ADV7: 12.2
  inhibitory activity against ADV7 infection (in words): significant inhibitory activities
  protection against ADV7-induced CPEs (microscopy): almost complete protection
  EC50: 65.2 ± 21.6 µM
  inhibition at 160 µM: 89.4%
CVB3 [2]
  reduction in CVB3 virus progeny titer relative to untreated control: approximately 2.5 log
CVB3 [4]
  inhibition of CVB3, compound added just before or during infection: no significant inhibition
  inhibitory effect against CVB3, compound added post infection: most powerful inhibitory effects
CVB3 [3]
  effect on CVB3 release from cells: do not act on viral release from cells
